No end group written: not given here.

A word on the IC50: it is the concentration that gives 50% inhibition. A lower IC50 goes with greater potency in that assay.

Holding throughout (test): biochemical
The target in one experiment is DRB3*0101 (Homo sapiens, UniProt P01903+P79483). Format: binding.
The target in the next experiment is DRB5*0101 (Homo sapiens, UniProt P01903+Q30154). As to conditions: Binding affinity DRB5 *0101.
The next experiment has as its target DRB1*0405 (Homo sapiens, UniProt P01903+P01911, A100R/A169T/D86S/F76Y/I96L/K127E/L162R/M171V/N62H/P40V/Q125Y/R42H/S133A/S149N/S66Y/V115G/V209L/W38E). Format: binding.
The next experiment concerns the target DRB1*0901 (Homo sapiens, UniProt P01903+P01911, A100R/A103E/D57H/D86V/F55Y/F60I/F76Y/I96F/K127E/L162R/M171V/P40D/Q125H/Q99R/R33Q/R42F/S133A/S66N/T210M/V115G/W38K/Y107V/Y59G/Y89S). Format: binding.
The target of another experiment is DRB1*1101 (Homo sapiens, UniProt P01903+P01911, A100R/A169T/A87E/I96F/K41T/L162R/M171V/P40S/Q125H/Q178H/Q39Y/Q99D/R42S/S66Y/T262R/V115G/W38E). To be noted: Binding affinity DRB1 *1101.
The next experiment deals with DRB4*0101 (Homo sapiens, UniProt P01903+P13762, G164S). Format: binding.
For another experiment, the target named is DRB1*1201 (Homo sapiens, UniProt P01903+P01911, A100R/A169T/D57E/D86V/F55L/H45Y/K41T/L162R/M171V/P40S/Q125H/Q178H/Q39Y/Q99D/R42G/S66L/T262R/V114A/V67L/W38E/Y59H/Y61H/Y89S). The experiment is classed as binding.
Another experiment has as its target DRB1*0301 (Homo sapiens, UniProt P01903+P01911, A100K/A102G/A103R/A169T/F55Y/I96L/K41T/L162R/M171V/P40S/Q125H/Q178H/Q39Y/R42S/S66N/T106N/T262R/W38E/Y61H). Format: binding.
A further experiment concerns the target DRB1*1302 (Homo sapiens, UniProt P01903+P01911, A100E/A169T/K41T/L162R/M171V/P40S/Q125H/Q178H/Q39Y/Q99D/R42S/S66N/T262R/V115G/W38E/Y61H). The experiment is classed as binding.
For another experiment, the target named is DR4w4 (DRB1*0401) (Homo sapiens, UniProt P01903+P01911, A100K/A169T/F76Y/I96L/K127E/L162R/M171V/N62H/P40V/Q125Y/R42H/S133A/S149N/S66Y/V115G/V209L/W38E). Format: binding.
For the next experiment, the target named is DRB1*1501 (Homo sapiens, UniProt P01903+P01911). The experiment is classed as binding.
The next experiment concerns the target DR7 (DRB1*0701) (Homo sapiens, UniProt P01903+P01911, A100R/A102G/A103Q/D57E/D86V/E43K/F76Y/K127E/L162R/M171V/P40G/Q125H/Q99D/R33Q/R42Y/R54Q/S133A/S66F/T210M/V115G/Y107V/Y59L/Y89S). The experiment is classed as binding.
The next experiment addresses DRB1*0802 (Homo sapiens, UniProt P01903+P01911, A100R/A103L/A169T/F76Y/H45Y/I96F/K41T/L162R/M171V/P40S/Q125H/Q178H/Q39Y/Q99D/R218S/R42G/S66Y/V115G/W38E). The experiment is classed as binding.
Another experiment addresses DR1 (DRB1*0101) (Homo sapiens, UniProt P01903+P01911, A100R/D57E/F55L/F60I/F76Y/I96L/L162R/M171V/P40L/Q125E/R42F/V115G/Y59C). The experiment is classed as binding.

Chain of DRB1*0301 (P01903 26-254 limits assumed, other chains not shown): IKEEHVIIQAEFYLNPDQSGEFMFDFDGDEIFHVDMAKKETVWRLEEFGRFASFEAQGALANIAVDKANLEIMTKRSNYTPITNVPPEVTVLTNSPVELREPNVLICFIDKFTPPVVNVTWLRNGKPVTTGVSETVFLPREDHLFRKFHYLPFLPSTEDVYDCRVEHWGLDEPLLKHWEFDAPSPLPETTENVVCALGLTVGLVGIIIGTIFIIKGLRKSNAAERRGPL
Chain of DRB1*1101 (P01903 26-254 limits assumed, other chains not shown): as above
Chain of DRB1*1302 (P01903 26-254 limits assumed, other chains not shown): as above

For RVCLLFYSKVRKYRY [Peptide 1543.54], the concentration for half-maximal inhibition (IC50) stood at 0.868 µM on DRB3*0101; 3.85 µM at DRB5*0101; 0.233 µM on DRB1*0405; 0.656 µM against DRB1*0901; 4.26 µM at DRB1*1101; 7.74 µM against DRB4*0101. Further, the IC50 against DRB1*1201 is 0.603 µM; on DRB1*0301, 0.071 µM; against DRB1*1302 it was 0.089 µM; on DR4w4 (DRB1*0401) it was 0.299 µM; at DRB1*1501 it was 0.717 µM; on DR7 (DRB1*0701), 0.232 µM.
As for EYVLDLYPEPTDLYC [Peptide 1543.12], the IC50 against DRB3*0101 was 0.734 µM; on DRB5*0101, greater than 20 µM; against DRB1*0405, 5.88 µM; at DRB1*0901 it was greater than 20 µM; on DRB1*1101 it was greater than 20 µM; at DRB4*0101 it was 0.159 µM. For the same compound, the IC50 against DRB1*0802 was greater than 20 µM; on DRB1*1201, 2.21 µM; at DRB1*0301, 0.76 µM; on DRB1*1302, greater than 20 µM; at DR1 (DRB1*0101), 9.08 µM; on DRB1*1501, 13 µM. For the same compound, at DR7 (DRB1*0701), the IC50 was greater than 20 µM.
With SEVYDFVFADLRIVY [Peptide 1543.48], the IC50 is 0.558 µM on DRB3*0101; 2.35 µM at DRB5*0101; 2.92 µM on DRB1*0405; 0.033 µM against DRB1*0901; greater than 20 µM on DRB1*1101; 1.42 µM against DRB4*0101. For the same compound, the IC50 is 4.04 µM on DRB1*0802; 8.09 µM against DRB1*1201; 0.0057 µM against DRB1*0301; 0.046 µM against DRB1*1302; 0.412 µM against DR1 (DRB1*0101); 0.62 µM against DR4w4 (DRB1*0401). On DR7 (DRB1*0701), this compound showed an IC50 of 0.051 µM.
PDGQAEQATSNYYIV [Peptide 1543.43]: the IC50 on DRB3*0101 was greater than 20 µM; on DRB5*0101, greater than 20 µM; at DRB1*0405 it was 5.12 µM; against DRB1*0901, 2.33 µM; on DRB4*0101 it was greater than 20 µM; against DRB1*0802, greater than 20 µM. The IC50 was greater than 20 µM against DRB1*1201; greater than 20 µM on DRB1*0301; greater than 20 µM against DRB1*1302; greater than 20 µM against DR1 (DRB1*0101); greater than 20 µM against DRB1*1501; 0.051 µM at DR7 (DRB1*0701).
Turning to RREVYDFAFRDLCIV [Peptide 1543.25], the IC50 is greater than 20 µM on DRB3*0101; 19.8 µM at DRB5*0101; greater than 20 µM on DRB1*0901; greater than 20 µM on DRB1*1101; 2.46 µM against DRB4*0101; 9.03 µM against DRB1*0802. The IC50 was 11 µM against DRB1*1201; 11 µM at DRB1*0301; greater than 20 µM on DRB1*1302; greater than 20 µM against DR1 (DRB1*0101); 4.03 µM on DR4w4 (DRB1*0401); greater than 20 µM against DRB1*1501. Also, at DR7 (DRB1*0701), the IC50 came to 0.073 µM.
`CC(C)C[C@H](NC(=O)[C@H](CC(=O)O)NC(=O)[C@@H](NC(=O)[C@@H](NC(=O)[C@H](CCC(=O)O)NC(=O)[C@@H]1CCCN1C(=O)[C@H](CCC(N)=O)NC(=O)[C@H](CC(C)C)NC(=O)[C@H](CC(=O)O)NC(=O)[C@@H](N)CC(C)C)[C@@H](C)O)[C@@H](C)O)C(=O)N[C@@H](Cc1ccc(O)cc1)C(=O)N[C@@H](CS)C(=O)N[C@@H](Cc1ccc(O)cc1)C(=O)N[C@@H](CCC(=O)O)C(=O)N[C@@H](CCC(N)=O)C(=O)O` [Peptide 1543.04]: the IC50 against DRB3*0101, on DRB5*0101, against DRB1*0405, against DRB1*0901, on DRB1*1101 and on DRB1*0802 was greater than 20 µM in each case. For the same compound, the IC50 against DRB1*1201 was greater than 20 µM; against DRB1*0301 it was 0.59 µM; against DRB1*1302 it was greater than 20 µM; at DR1 (DRB1*0101) it was greater than 20 µM; against DR4w4 (DRB1*0401), 1.9 µM; against DRB1*1501, greater than 20 µM. On DR7 (DRB1*0701), this compound gave an IC50 greater than 20 µM.
As to QSTQVDIRILQELLM [Peptide 1543.11], the IC50 on DRB3*0101 was greater than 20 µM; on DRB5*0101 it was greater than 20 µM; at DRB1*0405, 3.99 µM; against DRB1*0901, greater than 20 µM; on DRB1*1101 it was 6.48 µM; against DRB4*0101, 0.18 µM. Also, the IC50 is 2.34 µM against DRB1*1201; 2.71 µM against DRB1*0301; 0.607 µM at DRB1*1302; 0.544 µM at DR1 (DRB1*0101); 4.56 µM against DR4w4 (DRB1*0401); greater than 20 µM against DRB1*1501. Also, 5.39 µM corresponded to half-maximal inhibition on DR7 (DRB1*0701) (IC50).
Turning to RFHNIMGRWTGRCSE [Peptide 1543.60], the IC50 against DRB3*0101 amounted to 7.84 µM; at DRB5*0101 it was 0.374 µM; on DRB1*0405, 1.84 µM; against DRB1*0901, 8.86 µM; at DRB1*1101, 0.024 µM; against DRB4*0101, 1.12 µM. Further, the IC50 against DRB1*0802 was 0.027 µM; against DRB1*1201, 18.3 µM; at DRB1*0301, 5.48 µM; on DR1 (DRB1*0101) it was 0.0056 µM; against DR4w4 (DRB1*0401), 0.332 µM; against DRB1*1501 it was 0.123 µM.
QRFHNIRGRWTGRCM [Peptide 1543.27]: the IC50 against DRB3*0101 is greater than 20 µM; on DRB5*0101 it was 0.919 µM; at DRB1*0405, 4.47 µM; against DRB1*0901, greater than 20 µM; at DRB1*1101, 0.574 µM; at DRB4*0101 it was 4.55 µM. Further, the IC50 at DRB1*0802 is 0.894 µM; at DRB1*1201, 14.6 µM; against DRB1*0301, greater than 20 µM; against DRB1*1302 it was 5.31 µM; at DR1 (DRB1*0101) it was 0.036 µM; on DR4w4 (DRB1*0401), 2.9 µM. Half-maximal inhibition against DRB1*1501 (IC50) was put at 17.2 µM.
As for TRPRTLHELCEVLEE [Peptide 1543.42], the IC50 is greater than 20 µM on DRB3*0101; greater than 20 µM at DRB5*0101; 0.674 µM against DRB1*0405; greater than 20 µM against DRB1*0901; greater than 20 µM at DRB1*1101; 2.59 µM at DRB4*0101. For the same compound, the IC50 against DRB1*0802 was greater than 20 µM; at DRB1*1201, greater than 20 µM; at DRB1*0301, greater than 20 µM; against DRB1*1302 it was greater than 20 µM; on DR1 (DRB1*0101) it was 18 µM; at DRB1*1501, greater than 20 µM. This compound also yielded an IC50 against DR7 (DRB1*0701) greater than 20 µM.
LCVNSTASDLRTIQQ [Peptide 1543.15]: the IC50 was greater than 20 µM at DRB3*0101; greater than 20 µM at DRB5*0101; 0.49 µM on DRB1*0405; greater than 20 µM against DRB1*0901; 2.11 µM on DRB4*0101; 4.38 µM against DRB1*0802. For the same compound, the 50% inhibitory concentration (IC50) is 1.59 µM against DRB1*1201; 6.23 µM against DRB1*0301; 1.58 µM against DR1 (DRB1*0101); 0.063 µM on DR4w4 (DRB1*0401); greater than 20 µM against DRB1*1501; 0.723 µM on DR7 (DRB1*0701).
Regarding KERHVNANKRFHNIM [Peptide 1543.59], the IC50 at DRB3*0101 was greater than 20 µM; on DRB5*0101, 0.502 µM; on DRB1*0405, 0.026 µM; at DRB1*0901, 2.85 µM; on DRB1*1101, 0.083 µM; on DRB4*0101, 8.48 µM. In addition, the IC50 stood at 1.23 µM against DRB1*0802; 0.26 µM against DRB1*1201; 1.35 µM against DRB1*0301; 0.0052 µM against DRB1*1302; 0.413 µM at DR1 (DRB1*0101); 0.055 µM against DR4w4 (DRB1*0401). The same compound came in with an IC50 on DRB1*1501 of 12.9 µM.
